Molecules are shown by their SMILES.

In the first series the test system is larvae of brown planthopper (Nilaparvata lugens Stahl). Put plainly: Test Example 1: insecticidal activity against larvae of brown planthopper. The note with it: 168 h, third-instar larvae, 25° C., 7 days after treatment. In kind it is in vivo. Summed up: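 Rice seedlings at 1.5-leaf stage were dipped for 30 s in a 400 ppm test composition, air-dried, and infested with third-instar N. lugens larvae. After holding at 25 °C, mortality was scored 5 or 7 days post-treatment from three replicates.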
The term mortality denotes the share of the test organisms that died. As to `CN1C(=O)N(C(C)(C)CC(C)(C)C)CSC1=NC(C)(C)C` [Compound 63, 2-t-Butylimino-3-methyl-5-(1,1,3,3-tetramethyl)-butyl-tetrahydro-1,3,5-thiadiazin-4-one], the mortality at 400 ppm worked out at 100%.

`CC(C)N=C1SCN(C(C)C)C(=O)N1C` [Compound 18, 2-Isopropylimino-3-methyl-5-isopropyl-tetrahydro-1,3,5-thiadiazin-4-one]: the mortality at 400 ppm came to 100%.

As to `CCCN=C1SCN(Cc2ccccc2)C(=O)N1CCC` [Compound 56], the mortality at 400 ppm came to 80%.

Turning to `CN=C1SCN(C(C)(C)CC(C)(C)C)C(=O)N1c1ccccc1` [Compound 88], the mortality at 400 ppm was 100%.

Compound `CC(C)N=C1SCN(C(C)(C)CC(C)(C)C)C(=O)N1C` [Compound 59] registered a mortality at 400 ppm of 100%.

As to `CCN1CSC(=NC(C)C)N(C(C)C)C1=O` [Compound 8], the mortality at 400 ppm was 100%.

The compound `CN=C1SCN(C(C)C)C(=O)N1c1ccc(Cl)cc1C` [Compound 68] had a mortality at 400 ppm of 100%.

For the compound `C=CCN1CSC(=NC(C)C)N(C)C1=O` [Compound 10], the mortality at 400 ppm was determined as 100%.

`CCC(C)N=C1SCN(C(C)(C)C)C(=O)N1C` (stereo not shown) [Compound 35] registered a mortality at 400 ppm of 100%.

In turn, `CCN=C1SCN(C(C)(C)C)C(=O)N1c1ccccc1C` [Compound 80, 2-Ethylimino-3-o-tolyl-5-t-butyl-tetrahydro-1,3,5-thiadiazin-4-one] had a mortality at 400 ppm of 100%.

For `CN=C1SCN(C(C)(C)C)C(=O)N1c1ccc(Cl)cc1C` [Compound 82], the mortality at 400 ppm was 100%.

For a further series, the system named is larvae of white-backed planthopper (Sogatella furcifera Horvath). The experiment in a line: Test Example 2: insecticidal activity against larvae of white-backed planthopper. Format: in vivo. The note with it: 168 h, 400 ppm, first-instar larvae, 25° C., seven days after treatment, read-out: Mortality. As to the method:
Insecticidal activity against larvae of white-backed planthopper (Sogatella furcifera Horvath).
Testing method: Five rice seedlings of the 1.5 leaf age were dipped in a test composition of 400 ppm concentration for 30 seconds. After air-drying, the seedlings were placed in a glass tube containing 1 ml of water and infested with five first-instar larvae of white-backed planthopper. The glass tube was left standing in a constant temperature cabinet at 25° C. and seven days after the treatment, dead-and-survival was observed. Mortality was calculated from the results of 3-replication test.
With `CN1C(=O)N(C(C)(C)CC(C)(C)C)CSC1=NC(C)(C)C` [Compound 63, 2-t-Butylimino-3-methyl-5-(1,1,3,3-tetramethyl)-butyl-tetrahydro-1,3,5-thiadiazin-4-one], the mortality at 400 ppm was 100%.

For the compound `CC(C)N=C1SCN(C(C)C)C(=O)N1C` [Compound 18, 2-Isopropylimino-3-methyl-5-isopropyl-tetrahydro-1,3,5-thiadiazin-4-one], the mortality at 400 ppm is 100%.

As for `CCCN=C1SCN(Cc2ccccc2)C(=O)N1CCC` [Compound 56], the mortality at 400 ppm is 80%.

Consider `CN=C1SCN(C(C)(C)CC(C)(C)C)C(=O)N1c1ccccc1` [Compound 88], for which the mortality at 400 ppm is 100%.

`CC(C)N=C1SCN(C(C)(C)CC(C)(C)C)C(=O)N1C` [Compound 59]: the mortality at 400 ppm amounted to 100%.

With `CCN1CSC(=NC(C)C)N(C(C)C)C1=O` [Compound 8], the mortality at 400 ppm worked out at 100%.

Turning to `CN=C1SCN(C(C)C)C(=O)N1c1ccc(Cl)cc1C` [Compound 68], the mortality at 400 ppm is 100%.

Regarding `C=CCN1CSC(=NC(C)C)N(C)C1=O` [Compound 10], the mortality at 400 ppm amounted to 100%.

On to `CCC(C)N=C1SCN(C(C)(C)C)C(=O)N1C` (stereo not shown) [Compound 35], for which the mortality at 400 ppm was 100%.

Regarding `CCN=C1SCN(C(C)(C)C)C(=O)N1c1ccccc1C` [Compound 80, 2-Ethylimino-3-o-tolyl-5-t-butyl-tetrahydro-1,3,5-thiadiazin-4-one], the mortality at 400 ppm is 100%.

On to `CN=C1SCN(C(C)(C)C)C(=O)N1c1ccc(Cl)cc1C` [Compound 82], for which the mortality at 400 ppm was determined as 100%.

Another series relates to two-spotted spider mite (Tetranychus urticae Koch). Put plainly: Test Example 3: activity to two-spotted spider mite. Format: in vivo. To be noted: 48 h, 1,000 ppm, 2 days after treatment. An excerpt:
Activity to two-spotted spider mite (Tetranychus urticae Koch).
Testing method: Two-spotted spider mites were set free on the pot-planted soybean in a greenhouse. On the next day, a test composition of 1,000 ppm concentration was sprayed over the soybean by means of a spray gun. Two days or five days after the treatment, dead-and-survival was inspected to calculate the mortality.
In turn, `CN1C(=O)N(C(C)(C)CC(C)(C)C)CSC1=NC(C)(C)C` [Compound 63, 2-t-Butylimino-3-methyl-5-(1,1,3,3-tetramethyl)-butyl-tetrahydro-1,3,5-thiadiazin-4-one] returned a mortality at 1000 ppm of 80%.

Compound `CC(C)N=C1SCN(C(C)C)C(=O)N1C` [Compound 18, 2-Isopropylimino-3-methyl-5-isopropyl-tetrahydro-1,3,5-thiadiazin-4-one] came in with a mortality at 1000 ppm of 80%.

`CCCN=C1SCN(Cc2ccccc2)C(=O)N1CCC` [Compound 56]: the mortality at 1000 ppm was found to be 100%.

`CN=C1SCN(C(C)(C)CC(C)(C)C)C(=O)N1c1ccccc1` [Compound 88] showed a mortality at 1000 ppm of 100%.

For `CC(C)N=C1SCN(C(C)(C)CC(C)(C)C)C(=O)N1C` [Compound 59], the mortality at 1000 ppm amounted to 100%.

`CCN1CSC(=NC(C)C)N(C(C)C)C1=O` [Compound 8] came in with a mortality at 1000 ppm of 100%.

The compound `CN=C1SCN(C(C)C)C(=O)N1c1ccc(Cl)cc1C` [Compound 68] yielded a mortality at 1000 ppm of 100%.

For `C=CCN1CSC(=NC(C)C)N(C)C1=O` [Compound 10], the mortality at 1000 ppm came to 100%.

For the compound `CCC(C)N=C1SCN(C(C)(C)C)C(=O)N1C` (stereo not shown) [Compound 35], the mortality at 1000 ppm worked out at 100%.

Take `CCN=C1SCN(C(C)(C)C)C(=O)N1c1ccccc1C` [Compound 80, 2-Ethylimino-3-o-tolyl-5-t-butyl-tetrahydro-1,3,5-thiadiazin-4-one]: the mortality at 1000 ppm was found to be 80%.

`CN=C1SCN(C(C)(C)C)C(=O)N1c1ccc(Cl)cc1C` [Compound 82] gave a mortality at 1000 ppm of 100%.

In another series the test system is cirrus red mite (Panonychus citri McGregor). The experiment in a line: Test Example 4: activity to citrus red mite (Rothamstead method). In kind it is in vivo. The note with it: two days after treatment, 25° C.; 2880 min. Also on record: concentration or dose not given beside the values. As to the method:
Activity to cirrus red mite (Panonychus citri McGregor).
Testing method: The test was performed by Rothamstead method. A test composition was sprayed by means of a spray gun over grapefruit leaves infested with citrus red mites. After air-drying the grapefruit was left standing in a constant temperature cabinet at 25° C. Two days after the treatment, the number of survived mites was counted to calculate the mortality.
As for `CN1C(=O)N(C(C)(C)CC(C)(C)C)CSC1=NC(C)(C)C` [Compound 63, 2-t-Butylimino-3-methyl-5-(1,1,3,3-tetramethyl)-butyl-tetrahydro-1,3,5-thiadiazin-4-one], the Mortality was 50%.

Compound `CC(C)N=C1SCN(C(C)C)C(=O)N1C` [Compound 18, 2-Isopropylimino-3-methyl-5-isopropyl-tetrahydro-1,3,5-thiadiazin-4-one] registered a Mortality of 100%.

`CCCN=C1SCN(Cc2ccccc2)C(=O)N1CCC` [Compound 56]: the Mortality came to 100%.

The compound `CN=C1SCN(C(C)(C)CC(C)(C)C)C(=O)N1c1ccccc1` [Compound 88] gave a Mortality of 100%.

Consider `CC(C)N=C1SCN(C(C)(C)CC(C)(C)C)C(=O)N1C` [Compound 59], for which the Mortality stood at 100%.

`CCN1CSC(=NC(C)C)N(C(C)C)C1=O` [Compound 8] registered a Mortality of 80%.

Compound `CN=C1SCN(C(C)C)C(=O)N1c1ccc(Cl)cc1C` [Compound 68] yielded a Mortality of 50%.

In turn, `C=CCN1CSC(=NC(C)C)N(C)C1=O` [Compound 10] gave a Mortality of 80%.

As for `CCC(C)N=C1SCN(C(C)(C)C)C(=O)N1C` (stereo not shown) [Compound 35], the Mortality turned out to be 100%.

Regarding `CCN=C1SCN(C(C)(C)C)C(=O)N1c1ccccc1C` [Compound 80, 2-Ethylimino-3-o-tolyl-5-t-butyl-tetrahydro-1,3,5-thiadiazin-4-one], the Mortality came to 100%.

`CN=C1SCN(C(C)(C)C)C(=O)N1c1ccc(Cl)cc1C` [Compound 82] came in with a Mortality of 100%.

The subject of another series is larvae of green rice leafhopper (Nephotettix cincticeps Uhler). The experiment in a line: Test Example 5: activity against larvae of green rice leafhopper. In kind it is in vivo. To be noted: 168 h, 400 ppm, second-instar larvae, 25° C., seven days after treatment, read-out: Mortality. In short, it runs like this:
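Rice seedlings at 1.5 leaf age dipped 30 seconds in 400 ppm test composition, air-dried, then infested with five second-instar larvae. Kept at 25° C; mortality scored seven days after treatment, three replicates.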
With `CN1C(=O)N(C(C)(C)CC(C)(C)C)CSC1=NC(C)(C)C` [Compound 63, 2-t-Butylimino-3-methyl-5-(1,1,3,3-tetramethyl)-butyl-tetrahydro-1,3,5-thiadiazin-4-one], the mortality at 400 ppm worked out at 80%.

Take `CC(C)N=C1SCN(C(C)C)C(=O)N1C` [Compound 18, 2-Isopropylimino-3-methyl-5-isopropyl-tetrahydro-1,3,5-thiadiazin-4-one]: the mortality at 400 ppm turned out to be 100%.

Consider `CCCN=C1SCN(Cc2ccccc2)C(=O)N1CCC` [Compound 56], for which the mortality at 400 ppm was determined as 50%.

Consider `CN=C1SCN(C(C)(C)CC(C)(C)C)C(=O)N1c1ccccc1` [Compound 88], for which the mortality at 400 ppm was determined as 80%.

As to `CC(C)N=C1SCN(C(C)(C)CC(C)(C)C)C(=O)N1C` [Compound 59], the mortality at 400 ppm worked out at 100%.

Take `CCN1CSC(=NC(C)C)N(C(C)C)C1=O` [Compound 8]: the mortality at 400 ppm was 80%.

As for `CN=C1SCN(C(C)C)C(=O)N1c1ccc(Cl)cc1C` [Compound 68], the mortality at 400 ppm turned out to be 50%.

As to `C=CCN1CSC(=NC(C)C)N(C)C1=O` [Compound 10], the mortality at 400 ppm came out at 100%.

For `CCC(C)N=C1SCN(C(C)(C)C)C(=O)N1C` (stereo not shown) [Compound 35], the mortality at 400 ppm came out at 50%.

Turning to `CCN=C1SCN(C(C)(C)C)C(=O)N1c1ccccc1C` [Compound 80, 2-Ethylimino-3-o-tolyl-5-t-butyl-tetrahydro-1,3,5-thiadiazin-4-one], the mortality at 400 ppm came to 50%.

`CN=C1SCN(C(C)(C)C)C(=O)N1c1ccc(Cl)cc1C` [Compound 82]: the mortality at 400 ppm was 80%.

For the origin of these results see patent US4159328A, “Tetrahydro-1,3,5-thiadiazin-4-one derivative” (Nihon Nohyaku Co., Ltd., priority 1977, dated 1979).
